Measurements: US20230271958A1, “SALT AND CRYSTAL FORM OF DIHYDROPYRIDO[2,3-d]PYRIMIDINE DERIVATE” (NANJING CHIA TAI TIANQING PHARMACEUTICAL CO., LTD., priority 2020, published 2023)

Assay: Solid stability of crystal form A (chemical purity by HPLC)
Assay type: physicochemical
Details: for Purity (%) after placement (day 20): exposed to air for 20 d; for Purity (%) before placement (day 0): exposed to air
Procedure: Hot and humid conditions: temperature: 40° C., relative humidity: 75%, crystal form A was exposed to air for 20 d • b. High temperature conditions: temperature: 60° C., crystal form A was exposed to air for 20 d
The chemical purity of crystal form A was measured by HPLC.
Chromatographic column: ACE Excel 5 Super C18 (4.6×150 mm, 5 μm)
Detection wavelength: 230 nm, column temperature: 30° C., flow rate: 1.0 mL/min
Mobile phase: diammonium hydrogen phosphate (1.32 g) was weighed and dissolved in water (1000 mL), the solution was adjusted with phosphoric acid until the pH of the solution was 7.2, filtered, and used as A phase; and acetonitrile was used as B phase.

[1] = condition a: 40° C., relative humidity 75%

CC(C)NC[C@@H](C(=O)N1CCN(c2ncnc3c2[C@H](C)CC(=O)N3)[C@H]2C[C@H]21)c1ccc(Cl)cc1.O=C(O)/C=C/C(=O)O [crystal form A]
Purity (%) after placement (day 20) [1]: 99.89%
Purity (%) before placement (day 0) [1]: 99.84%
Purity (%) after placement (day 20) (condition b: 60° C.): 99.88%
Purity (%) before placement (day 0) (condition b: 60° C.): 99.84%
